Measured values from patent US20060135485A1, “Microbicidal compositions and their use” (priority 2002, published 2006).

How the values were obtained:
Format in all cases: cell-based
[1] = system: Pseudomonas aeruginosa ATCC 9027, Candida albicans ATCC 10231, Aspergillus niger ATCC 16404; assay: Preservation loading test in styrene butadiene emulsions; conditions: sole active component, neutral conditions, typical polymer emulsion; bacteria, yeasts and moulds
Method: Styrene Butadiene Emulsions were inoculated with 1×10^6 of the test culture, stored for 7 days at 25° C. and then a semi-quantitative determination of colony forming units was carried out. This loading test was carried out with a representative bacteria (Pseudomonas aeruginosa ATCC 9027), a representative yeast (Candida albicans ATCC 10231) and a representative mould (Aspergillus niger ATCC 16404) over consecutive weeks until the product has been subjected to (at least) three separate loadings of each culture type. The concentration of preserving agent at which no recovery of the test organisms was observed is the end point of the test and adequacy of preservation is assumed.

[2] = system: Aspergillus niger (ASN) ATCC 16404; assay: MIC culture tube dilution test; conditions: pH 7.2±0.2, 72 hour incubation at 36° C.
Method: (§1) Microbiocides and microbiocidal properties were determined experimentally. Very well suited test methods are described in detail in the German Society for Hygiene and Microbiology (GGHM) for the examination of disinfectants. In order to determine the MIC, culture tube dilution tests were carried out according to the “regulations for the examination and evaluation of chemical disinfection procedures (Edition 1.1.81, procedures slightly modified)” using a […]-soya bean meal peptide medium. The dilution was carried out with water of standardised hardness without further agents such as surfactants. The adjustment of the pH values to 7.2±0.2 was carried out with 0.1 mol/NaOH or 0.1 mol/HCl. The gradation of test concentrations was made according to the concentration steps proposed by the GGHM. The evaluation was carried out after a 72 hour incubation at 36° C. [table] One part polyvinylamine, consisting of 95 wt % vinyl units and 5 wt % vinylformamide units with a K-value of 90 were mixed with 4.2 parts cyclohexyldiazeniumdioxy potassium. […] The effectiveness was determined according to the abovementioned methods. MIC stated here gives the minimal effective concentration, in which a.i. (active ingredient) means the active component.

[3] = system: Candida albicans (CA) ATCC 10231; assay: MIC culture tube dilution test; conditions: pH 7.2±0.2, 72 hour incubation at 36° C.
Method: as §1

[4] = system: Escherichia coli (EC) ATCC 11229; assay: MIC culture tube dilution test; conditions: pH 7.2±0.2, 72 hour incubation at 36° C.
Method: as §1

[5] = system: Proteus mirabilis (PRM) ATCC 14153; assay: MIC culture tube dilution test; conditions: pH 7.2±0.2, 72 hour incubation at 36° C.
Method: as §1

[6] = system: Pseudomonas aeruginosa (PSA) ATCC 15442; assay: MIC culture tube dilution test; conditions: pH 7.2±0.2, 72 hour incubation at 36° C.
Method: as §1

[7] = system: Staphylococcus aureus (STA) ATCC 6538; assay: MIC culture tube dilution test; conditions: pH 7.2±0.2, 72 hour incubation at 36° C.
Method: as §1

For O=NN(O)C1CCCCC1.[K] [KHDO, potassium salt of N′-hydroxy-N-cyclohexyl-diazenium oxide], the “Killing of spoilage microorganisms (in words)” value [1] was “able not only to inhibit but actively kill a representative range of spoilage microorganisms”, the “MIC Cyclohexyldiazeniumdioxy potassium [ppm a.i.] B” value [2] was 175 ppm a.i and the “MIC Cyclohexyldiazeniumdioxy potassium [ppm a.i.] B” value [3] was 350 ppm a.i. The “MIC Cyclohexyldiazeniumdioxy potassium [ppm a.i.] B” value [4] was 350 ppm a.i, the “MIC Cyclohexyldiazeniumdioxy potassium [ppm a.i.] B” value [5] was 750 ppm a.i and the “MIC Cyclohexyldiazeniumdioxy potassium [ppm a.i.] B” value [6] was 3000 ppm a.i. The “MIC Cyclohexyldiazeniumdioxy potassium [ppm a.i.] B” value [7] was 750 ppm a.i.
